For orientation: melting point means the temperature of the solid-liquid transition.

In turn, `CC1CCC(O)([C@H](C[C@H](O)[C@H](Cc2ccccc2)NC(=O)c2cnc3ccccc3n2)C(N)=O)CC1` (stereo partly drawn) [Example 278, Quinoxaline-2-carboxylic acid [1(S)-benzyl-4(S)-carbamoyl-2(S)-hydroxy-4-(1-hydroxy-4-methyl-cyclohexyl)-butyl]-amide] returned a melting point of 230 to 233 °C.

`CNC(=O)[C@H](CC1CCCCC1)C[C@H](O)[C@H](CC1CCCCC1)NC(=O)c1cncc2ccccc12` [Example 62, Isoquinoline-4-carboxylic acid (5-cyclohexyl-1(S)-cyclohexylmethyl-2(S)-hydroxy-4(R)-methylcarbamoyl-pentyl)-amide] displayed a melting point of 220.5 to 224 °C.

As to `CC1CCC(O)([C@H](C[C@H](O)[C@H](Cc2ccccc2)NC(=O)c2cnc3ccccc3n2)C(=O)NO)CC1` (stereo partly drawn) [Example 283, Quinoxaline-2-carboxylic acid [1(S)-benzyl-2(S)-hydroxy-4(S)-hydroxycarbamoyl-4-(1-hydroxy-4-methyl-cyclohexyl)-butyl]-amide], the melting point was in the range of 114 to 116 °C. The compound `NC(=O)[C@@H](C[C@H](O)[C@H](Cc1ccccc1)NC(=O)c1cnc2ccccc2n1)C1CCCCCC1` [Example 181, Quinoxaline-2-carboxylic acid (1(S)-benzyl-4(S)-carbamoyl-4-cycloheptyl-2(S)-hydroxy-butyl)-amide] registered a melting point of 216 to 217 °C. Next, `CC(C)C[C@H](C[C@H](O)C(Cc1ccccc1)NC(=O)c1cnc2ccccc2c1)C(=O)NCCO` (stereo partly drawn) [Example 33, Quinoline-3-carboxylic acid [1-benzyl-2(S)-hydroxy-4(R)-(2-hydroxy-ethylcarbamoyl)-6-methyl-heptyl]-amide]: 158 to 162 °C; `CC(C)(F)CC[C@H](C[C@H](O)[C@H](Cc1ccccc1)NC(=O)c1cnc2ccccc2n1)C(=O)NCCc1cccnc1` [Example 220, Quinoxaline-2-carboxylic acid [1(S)-benzyl-7-fluoro-2(S)-hydroxy-7-methyl-4(R)-(2-pyridin-3-yl-ethylcarbamoyl)-octyl]-amide]: 154 to 155 °C.

The compound `CC(C)CC[C@H](C[C@H](O)[C@H](Cc1cccc(F)c1)NC(=O)c1cnc2ccccc2n1)C(N)=O` [Example 135, Quinoxaline-2-carboxylic acid [4(R)-carbamoyl-1(S)-(3-fluoro-benzyl)-2(S)-hydroxy-7-methyl-octyl]-amide] showed a melting point of 191 to 191.5 °C. `NC(=O)[C@H](Cc1ccccc1)C[C@H](O)[C@H](Cc1ccccc1)NC(=O)c1cnc2c(c1)CCC2` [Example 286, 6,7-Dihydro-5H-[1]pyrindine-3-carboxylic acid (1(S)-benzyl-4(R)-carbamoyl-2(S)-hydroxy-5-phenyl-pentyl)-amide] registered a melting point of 182 to 186 °C. As to `CC(C)(F)CC[C@H](C[C@H](O)[C@H](Cc1ccccc1)NC(=O)c1cnc2ccccc2n1)C(=O)NN` [Example 312, Quinoxaline-2-carboxylic acid (1(S)-benzyl-7-fluoro-4(R)-hydrazinocarbonyl-2(S)-hydroxyl-7-methyl-octyl)-amide], the melting point lay within 147 to 149 °C. As to `CC(C)CC[C@H](C[C@H](O)[C@H](Cc1ccccc1F)NC(=O)c1cnc2ccccc2n1)C(N)=O` [Example 175, Quinoxaline-2-carboxylic acid [4(R)-carbamoyl-1(S)-(2-fluoro-benzyl)-2(S)-hydroxy-7-methyl-octyl]-amide], the melting point fell in the range of 213 to 215 °C.

The compound `NC(=O)[C@H](C[C@H](O)[C@H](Cc1cccs1)NC(=O)c1cnc2ccccc2n1)C1(O)CCCCC1` [Example 268, Quinoxaline-2-carboxylic acid [4(R)-carbamoyl-2(S)-hydroxy-4-(1-hydroxy-cyclohexyl)-1(S)-thiophen-2-ylmethyl-butyl]-amide] registered a melting point of 206 to 207 °C. `CC(C)(F)CC[C@H](C[C@H](O)[C@H](Cc1ccccc1)NC(=O)c1cnc2ccccc2n1)C(=O)NCC1CCCO1` (stereo partly drawn) [Example 240, Quinoxaline-2-carboxylic acid {1(S)-benzyl-7-fluoro-2(S)-hydroxy-7-methyl-4(R)-[(tetrahydrofuran-2-ylmethyl)-carbamoyl]-octyl}-amide] showed a melting point of 111 to 115 °C. `CC(C)(F)CC[C@H](C[C@H](O)[C@H](Cc1ccccc1)NC(=O)c1cnc2ccccc2n1)C(=O)NCCc1cccs1` [Example 229, Quinoxaline-2-carboxylic acid [1(S)-benzyl-7-fluoro-2(S)-hydroxy-7-methyl-4(R)-(2-thiophen-2-yl-ethylcarbamoyl)-octyl]-amide] displayed a melting point of 152 to 154 °C. Take `CNC(=O)[C@H](CC1CCCCC1)C[C@H](O)[C@H](Cc1ccc(Cl)cc1)NC(=O)c1cnc2ccccc2c1` [Example 71, Quinoline-3-carboxylic acid [1(S)-(4-chloro-benzyl)-5-cyclohexyl-2(S)-hydroxy-4(R)-methylcarbamoyl-pentyl]-amide]: the melting point is 198 to 201 °C. The figure for `CNC(=O)[C@H](CC1CCCCC1)C[C@H](O)[C@H](CC1CCCCC1)NC(=O)c1cc2ccccc2cn1` [Example 59, Isoquinoline-3-carboxylic acid (5-cyclohexyl-1(S)-cyclohexylmethyl-2(S)-hydroxy-4(R)-methylcarbamoyl-pentyl)-amide] is 205 to 207 °C; for `CC1CC([C@H](C[C@H](O)[C@H](Cc2ccccc2)NC(=O)c2cnc3ccccc3n2)C(N)=O)CC(C)O1` (stereo partly drawn) [Example 244, Quinoxaline-2-carboxylic acid [1(S)-benzyl-4(S)-carbamoyl-4-(2,6-dimethyl-tetrahydro-pyran-4-yl)-2(S)-hydroxy-butyl]-amide] it is 195 to 198 °C; for `CCCC1CCC(O)([C@H](C[C@H](O)[C@H](Cc2ccccc2)NC(=O)c2cnc3ccccc3n2)C(N)=O)CC1` (stereo partly drawn) [Example 300, Quinoxaline-2-carboxylic acid [1(S)-benzyl-4(S)-carbamoyl-2(S)-hydroxy-4-(1-hydroxy-4-propyl-cyclohexyl)-butyl]-amide] it is 227 to 228 °C.

On to `CCC(CC)[C@H](C[C@H](O)[C@H](Cc1ccccc1)NC(=O)c1cnc2ccccc2n1)C(N)=O` [Example 203, Quinoxaline-2-carboxylic acid (1(S)-benzyl-4(S)-carbamoyl-5-ethyl-2(S)-hydroxy-heptyl)-amide], for which the melting point lay in the range of 215 to 218 °C. `NC(=O)[C@@H](Cc1ccc(Cl)c(Cl)c1)C[C@H](O)[C@H](Cc1ccccc1)NC(=O)c1cnc2ccccc2n1` [Example 279, Quinoxaline-2-carboxylic acid [1(S)-benzyl-4(S)-carbamoyl-5-(3,4-dichloro-phenyl)-2(S)-hydroxy-pentyl]-amide] came in with a melting point of 199 to 201 °C.

`CNC(=O)C[C@H](C[C@H](O)[C@H](Cc1ccccc1)NC(=O)c1cnc2ccccc2n1)C(=O)NC` [Example 151, 2(S)-{2(S)-hydroxy-4-phenyl-3(S)-[(quinoxaline-2-carbonyl)-amino]-butyl}-N1,N4-dimethyl-succinamide] registered a melting point of 178 to 180 °C. Next, `CNC(=O)[C@H](CC(C)C)C[C@H](O)[C@H](Cc1ccc(F)cc1)NC(=O)c1cnc2ccccc2n1` [Example 90, Quinoxaline-2-carboxylic acid [1(S)-(4-fluoro-benzyl)-2(S)-hydroxy-6-methyl-4(R)-methylcarbamoyl-heptyl]-amide]: 153 to 156 °C.

(Values after US20040087571A1, “Methods of using CCR1 antagonists as immunomodulatory agents” (Pfizer Inc, priority 2002, published 2004).)
